Results taken from ChEMBL document CHEMBL1201862, “PubChem BioAssay data set” (2004).
Active and inactive are the calls of the source.

Assays:
[1] = target: UDP-galactopyranose mutase (Mycobacterium tuberculosis, UniProt P9WIQ1); experiment: Inhibitors of Mycobacterium tuberculosis UDP-galactopyranose mutase (UGM) enzyme Measured in Biochemical System Using Plate Reader - 2105-02_Inhibitor_Dose_CherryPick_Activity. [Related pubchem assays (depositor defined):AID504439]
[2] = inhibitors of firefly luciferase expression or activity, dose response, H4 neuroglioma cells, luminescence (AID 1990); type: functional, cell-based
[3] = inhibitors of SNCA 5'UTR-driven reporter translation, confirmation, H4 neuroglioma cells, luminescence (AID 1988); type: functional, cell-based
[4] = Luminescence Cell-Based Dose Retest to Confirm Inhibitors of Cancer Stem Cells. [Related pubchem assays (depositor defined):AID2717, AID2721]; type: functional; settings: Homo sapiens
[5] = Luminescence Cell-Based Dose Response HTS to Identify Inhibitors of 5'UTR Stem-Loop Driven Prion Protein mRNA Translation in H4 Neuroglioblastoma Cells. [Related pubchem assays: 1827 (Project Summary), 1813 (Primary HTS)]; type: functional
Estrogen receptor = target: T1, Estrogen receptor (Homo sapiens, UniProt P03372);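 note: potency for inhibiting coactivator peptide recruitment to the receptor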
T1 sequence (P03372 whole entry): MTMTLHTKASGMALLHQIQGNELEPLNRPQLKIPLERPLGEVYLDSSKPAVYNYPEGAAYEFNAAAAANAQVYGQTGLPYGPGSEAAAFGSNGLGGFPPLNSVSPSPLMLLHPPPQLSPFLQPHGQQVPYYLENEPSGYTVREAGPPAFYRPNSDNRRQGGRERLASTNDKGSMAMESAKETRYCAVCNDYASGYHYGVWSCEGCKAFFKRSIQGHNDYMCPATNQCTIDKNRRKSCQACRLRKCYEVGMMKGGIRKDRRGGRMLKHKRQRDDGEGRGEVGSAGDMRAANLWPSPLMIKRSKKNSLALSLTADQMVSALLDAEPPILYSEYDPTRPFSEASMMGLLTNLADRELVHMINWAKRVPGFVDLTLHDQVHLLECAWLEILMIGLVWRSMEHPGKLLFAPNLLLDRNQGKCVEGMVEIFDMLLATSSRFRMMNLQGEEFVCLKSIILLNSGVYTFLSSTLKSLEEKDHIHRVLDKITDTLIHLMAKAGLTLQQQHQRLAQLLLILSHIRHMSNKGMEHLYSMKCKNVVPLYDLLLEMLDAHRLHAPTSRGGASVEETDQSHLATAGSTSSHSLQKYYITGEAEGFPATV

[6] = A Cell Based Secondary Assay To Explore Cytotoxicity of Compounds that Sensitize Mycobacterium Tuberculosis to Beta-Lactam Antibiotics.; type: functional
[7] = cytotoxicity in HMLE control line with eGFP shRNA, dose response, counter-screen for HMLE_sh_ECad selective toxicity project, cell-based, HMLE_sh_eGFP, luminescence (AID 463074); type: functional, Homo sapiens;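 note: HMLE human mammary epithelial cells expressing control shRNA against eGFP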
[8] = target: T2, Endoribonuclease toxin MazF (Escherichia coli K-12, UniProt P0AE70); experiment: fluorescent RNA oligo signal without MazF, dose response, counter-screen for MazEF activator project, biochemical, fluorescence, single-stranded RNase substrate (AID 588502); type: functional
T2 sequence (P0AE70 whole entry): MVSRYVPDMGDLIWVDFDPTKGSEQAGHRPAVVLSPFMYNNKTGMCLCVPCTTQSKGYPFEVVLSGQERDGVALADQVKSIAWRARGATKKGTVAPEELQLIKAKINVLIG

Keap1/Nrf2 = Keap1/Nrf2 (Homo sapiens, UniProt Q14145); experiment: Keap1-Nrf2 protein-protein interaction inhibitors, dose response, biochemical, fluorescence polarization, cherry-picked samples (AID 588683)
[9] = target: T2, Endoribonuclease toxin MazF; experiment: MazF toxin RNase activators, dose response, biochemical, fluorescence, single-stranded RNA substrate, uHTS hits (AID 588481); type: functional
Candida albicans = experiment: growth inhibition of resistant C. albicans, dose response, CaCi-8, fluconazole, Alamar Blue, dry powder (AID 488807); type: functional, organism-based
[10] = target: T3, Polyadenylate-binding protein 1 (Homo sapiens, UniProt P11940); experiment: PABP poly(A) RNA binding inhibitors, primary screen, biochemical, fluorescence polarization, uHTS (AID 2014)
[11] = target: T3, Polyadenylate-binding protein 1; experiment: PABP inhibition in translation initiation, SAR follow-up (AID 435018); type: functional
[12] = target: T4, Apoptotic protease-activating factor 1 (Homo sapiens, UniProt O14727); experiment: activation of Apaf-1 mediated apoptosis – fluorescent, uHTS hits, dose response (AID 588554); type: functional
T4 sequence (O14727 whole entry): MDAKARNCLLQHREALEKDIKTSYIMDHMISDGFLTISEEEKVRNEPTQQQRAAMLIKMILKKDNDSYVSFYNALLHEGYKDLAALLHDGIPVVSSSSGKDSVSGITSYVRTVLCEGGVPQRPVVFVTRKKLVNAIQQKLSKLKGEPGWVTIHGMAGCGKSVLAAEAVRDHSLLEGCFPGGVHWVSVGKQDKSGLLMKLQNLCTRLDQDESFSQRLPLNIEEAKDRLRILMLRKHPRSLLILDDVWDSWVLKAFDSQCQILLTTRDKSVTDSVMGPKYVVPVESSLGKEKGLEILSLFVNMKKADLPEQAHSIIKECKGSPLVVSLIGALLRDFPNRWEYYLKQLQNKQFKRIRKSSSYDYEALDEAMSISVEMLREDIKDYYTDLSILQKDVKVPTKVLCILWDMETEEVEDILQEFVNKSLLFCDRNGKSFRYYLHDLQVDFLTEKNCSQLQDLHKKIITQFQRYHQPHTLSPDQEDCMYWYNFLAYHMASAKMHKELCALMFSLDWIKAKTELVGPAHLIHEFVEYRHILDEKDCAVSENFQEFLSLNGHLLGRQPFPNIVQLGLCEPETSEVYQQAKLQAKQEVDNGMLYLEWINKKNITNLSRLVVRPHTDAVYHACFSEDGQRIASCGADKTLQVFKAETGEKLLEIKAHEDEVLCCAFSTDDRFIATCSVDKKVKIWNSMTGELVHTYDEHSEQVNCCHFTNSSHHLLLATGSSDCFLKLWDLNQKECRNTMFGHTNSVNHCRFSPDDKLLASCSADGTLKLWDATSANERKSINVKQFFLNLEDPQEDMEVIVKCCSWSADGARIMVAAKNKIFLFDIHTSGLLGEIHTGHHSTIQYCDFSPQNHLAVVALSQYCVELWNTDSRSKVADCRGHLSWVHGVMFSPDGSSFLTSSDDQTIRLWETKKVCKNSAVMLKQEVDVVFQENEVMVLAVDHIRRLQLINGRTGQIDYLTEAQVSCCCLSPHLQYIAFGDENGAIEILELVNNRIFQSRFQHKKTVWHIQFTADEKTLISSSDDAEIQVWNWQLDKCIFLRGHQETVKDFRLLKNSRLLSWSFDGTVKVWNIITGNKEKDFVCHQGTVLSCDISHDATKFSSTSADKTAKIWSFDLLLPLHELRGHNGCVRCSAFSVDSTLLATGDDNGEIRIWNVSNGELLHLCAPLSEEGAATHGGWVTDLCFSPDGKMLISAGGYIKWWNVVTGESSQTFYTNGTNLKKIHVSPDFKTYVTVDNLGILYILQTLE

[13] = target: T5, Small ubiquitin-related modifier 1 (Homo sapiens, UniProt P63165); experiment: inhibitors of SUMO1 partner interactions, dose response, biochemical, FRET (AID 624383); type: functional; settings: read-out: IC50_Mean
[14] = target: T6, Eukaryotic translation initiation factor 4H (Homo sapiens, UniProt Q15056); experiment: eIF4H inhibition in translation initiation, SAR follow-up (AID 435011); type: functional
[15] = target: T5, Small ubiquitin-related modifier 1; experiment: inhibitors of SUMO1 peptide binding, dose response, biochemical, fluorescence polarization, uHTS hits (AID 624382); type: functional; settings: read-out: IC50_Mean
[16] = target: T6, Eukaryotic translation initiation factor 4H; experiment: human eIF4H binding inhibitors, primary screen, translation initiation inhibitor project, biochemical, uHTS, fluorescence polarization (AID 2012)
[17] = target: Dual specificity protein phosphatase 3 (Homo sapiens, UniProt P51452); experiment: VHR1 inhibitor Ki determination, SAR follow-up, biochemical, colorimetric (AID 2004)
[18] = target: T7, Dual specificity protein phosphatase 6 (Rattus norvegicus, UniProt Q64346); type: functional
Phospholipase A2 = Phospholipase A2 (Homo sapiens, UniProt P04054); type: functional;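 note: confirmatory dose-response counterscreen on phospholipase A2, testing hits that came from an ultra-high-throughput screen for ATG4B inhibitors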
[19] = target: Heat shock 70 kDa protein 1A (Homo sapiens, UniProt P0DMV8); experiment: Hsp70 inhibitors, SAR follow-up, biochemical, fluorescence polarization (AID 1072)
[20] = target: Glyceraldehyde-3-phosphate dehydrogenase (Homo sapiens, UniProt P04406)
Cysteine protease ATG4B = target: T8, Cysteine protease ATG4B (Homo sapiens, UniProt Q9Y4P1); type: functional;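 note: Fluorescence-based dose-response confirmation assay measuring inhibition of ATG4B activity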
T8 sequence (Q9Y4P1 whole entry): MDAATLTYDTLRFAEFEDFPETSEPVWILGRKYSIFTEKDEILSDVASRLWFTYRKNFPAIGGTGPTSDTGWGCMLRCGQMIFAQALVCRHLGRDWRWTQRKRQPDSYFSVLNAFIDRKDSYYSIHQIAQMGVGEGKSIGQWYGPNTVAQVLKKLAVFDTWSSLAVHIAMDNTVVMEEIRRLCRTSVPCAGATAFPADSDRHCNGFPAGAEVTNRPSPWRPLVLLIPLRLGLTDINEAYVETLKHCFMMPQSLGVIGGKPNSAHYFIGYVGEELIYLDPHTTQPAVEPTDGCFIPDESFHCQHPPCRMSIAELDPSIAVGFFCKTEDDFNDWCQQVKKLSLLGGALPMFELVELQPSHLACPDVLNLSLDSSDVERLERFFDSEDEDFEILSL

[21] = target: T7, Dual specificity protein phosphatase 6
[22] = target: T9, Tyrosine-protein phosphatase non-receptor type 7 (Homo sapiens, UniProt P35236); type: functional
T9 sequence (P35236 whole entry): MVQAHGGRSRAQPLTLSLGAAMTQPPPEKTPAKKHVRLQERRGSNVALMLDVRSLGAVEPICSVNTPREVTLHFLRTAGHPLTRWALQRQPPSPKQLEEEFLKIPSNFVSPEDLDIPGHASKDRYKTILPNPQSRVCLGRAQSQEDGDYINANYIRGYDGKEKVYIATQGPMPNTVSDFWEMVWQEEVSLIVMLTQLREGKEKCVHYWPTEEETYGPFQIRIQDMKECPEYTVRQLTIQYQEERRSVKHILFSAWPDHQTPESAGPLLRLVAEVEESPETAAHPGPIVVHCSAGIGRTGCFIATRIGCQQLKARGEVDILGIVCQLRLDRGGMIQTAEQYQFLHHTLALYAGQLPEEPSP

Bcl-2-like protein 10 = target: T10, Bcl-2-like protein 10 (Homo sapiens, UniProt Q9HD36); experiment: Biochemical TR3 FP assay of Bcl-B inhibitor potency, EC50 (AID 1243); type: functional
T10 sequence (Q9HD36 whole entry): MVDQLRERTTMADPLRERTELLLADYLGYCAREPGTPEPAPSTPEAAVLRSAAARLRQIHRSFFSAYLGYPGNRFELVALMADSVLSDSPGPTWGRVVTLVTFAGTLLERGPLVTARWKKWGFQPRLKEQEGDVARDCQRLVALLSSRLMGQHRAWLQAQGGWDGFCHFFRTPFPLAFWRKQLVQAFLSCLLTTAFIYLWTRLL

[23] = target: Heat shock cognate 71 kDa protein (Homo sapiens, UniProt P11142); experiment: In Vitro Hsc70 Dose Response Fluorescence Polarization Assay. [Related pubchem assays: 1072 ]
Chain of Heat shock cognate 71 kDa protein (P11142 whole entry): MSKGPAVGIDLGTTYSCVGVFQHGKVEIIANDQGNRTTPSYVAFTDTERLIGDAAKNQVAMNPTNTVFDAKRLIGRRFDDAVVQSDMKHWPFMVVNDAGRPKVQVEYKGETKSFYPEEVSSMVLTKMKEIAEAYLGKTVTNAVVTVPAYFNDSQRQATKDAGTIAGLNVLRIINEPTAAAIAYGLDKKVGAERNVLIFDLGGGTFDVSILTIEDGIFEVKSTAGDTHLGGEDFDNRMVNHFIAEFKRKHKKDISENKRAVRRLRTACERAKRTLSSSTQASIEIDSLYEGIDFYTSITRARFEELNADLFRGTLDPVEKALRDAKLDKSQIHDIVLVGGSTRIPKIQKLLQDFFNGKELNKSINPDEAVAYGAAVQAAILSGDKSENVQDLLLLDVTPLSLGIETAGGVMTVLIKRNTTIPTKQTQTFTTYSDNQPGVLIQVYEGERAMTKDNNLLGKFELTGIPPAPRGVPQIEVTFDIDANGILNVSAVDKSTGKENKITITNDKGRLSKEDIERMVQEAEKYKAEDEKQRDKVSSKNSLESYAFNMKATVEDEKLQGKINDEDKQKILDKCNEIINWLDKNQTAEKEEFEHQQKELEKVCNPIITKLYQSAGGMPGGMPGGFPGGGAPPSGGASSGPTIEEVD

T3 sequence (P11940 whole entry): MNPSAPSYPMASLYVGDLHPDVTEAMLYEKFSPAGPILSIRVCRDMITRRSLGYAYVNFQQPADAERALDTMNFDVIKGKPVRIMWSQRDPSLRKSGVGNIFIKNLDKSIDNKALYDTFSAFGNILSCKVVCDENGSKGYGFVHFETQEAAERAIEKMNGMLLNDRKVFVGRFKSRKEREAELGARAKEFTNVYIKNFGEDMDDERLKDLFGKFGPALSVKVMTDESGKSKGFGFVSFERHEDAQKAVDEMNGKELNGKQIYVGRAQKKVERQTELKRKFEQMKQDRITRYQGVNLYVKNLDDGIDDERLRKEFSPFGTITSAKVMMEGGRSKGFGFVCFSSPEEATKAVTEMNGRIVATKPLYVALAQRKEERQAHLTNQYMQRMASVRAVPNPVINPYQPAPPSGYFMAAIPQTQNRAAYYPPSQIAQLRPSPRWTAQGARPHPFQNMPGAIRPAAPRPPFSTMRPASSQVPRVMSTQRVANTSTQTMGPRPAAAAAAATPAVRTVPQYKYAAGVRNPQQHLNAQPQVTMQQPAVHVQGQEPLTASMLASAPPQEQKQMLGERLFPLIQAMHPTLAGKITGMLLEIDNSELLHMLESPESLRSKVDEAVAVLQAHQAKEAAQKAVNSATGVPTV
T5 sequence (P63165 whole entry): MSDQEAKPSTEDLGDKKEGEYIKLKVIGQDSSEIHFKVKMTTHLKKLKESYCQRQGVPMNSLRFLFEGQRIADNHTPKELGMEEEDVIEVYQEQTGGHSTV
T7 sequence (Q64346 whole entry): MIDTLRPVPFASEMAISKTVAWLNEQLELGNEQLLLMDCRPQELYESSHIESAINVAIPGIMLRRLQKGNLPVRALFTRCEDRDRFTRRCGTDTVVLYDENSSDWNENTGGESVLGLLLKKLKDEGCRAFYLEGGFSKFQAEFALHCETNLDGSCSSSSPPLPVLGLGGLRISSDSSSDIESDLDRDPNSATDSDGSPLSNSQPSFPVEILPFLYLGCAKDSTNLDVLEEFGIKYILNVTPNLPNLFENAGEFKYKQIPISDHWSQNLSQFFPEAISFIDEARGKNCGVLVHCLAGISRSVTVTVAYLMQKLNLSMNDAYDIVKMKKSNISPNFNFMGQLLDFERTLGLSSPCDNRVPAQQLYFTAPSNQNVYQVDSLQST
Chain of UDP-galactopyranose mutase (P9WIQ1 whole entry): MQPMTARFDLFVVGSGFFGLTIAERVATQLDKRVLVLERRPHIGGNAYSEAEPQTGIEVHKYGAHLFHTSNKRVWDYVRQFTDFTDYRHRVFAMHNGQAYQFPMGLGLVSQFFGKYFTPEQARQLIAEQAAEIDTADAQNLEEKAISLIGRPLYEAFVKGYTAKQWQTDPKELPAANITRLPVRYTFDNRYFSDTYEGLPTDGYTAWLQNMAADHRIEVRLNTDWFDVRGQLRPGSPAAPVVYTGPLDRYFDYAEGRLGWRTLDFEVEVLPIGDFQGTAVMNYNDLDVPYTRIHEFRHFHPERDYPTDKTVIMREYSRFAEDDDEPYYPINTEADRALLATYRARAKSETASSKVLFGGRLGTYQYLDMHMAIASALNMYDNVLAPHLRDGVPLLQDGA
Chain of Dual specificity protein phosphatase 3 (P51452 whole entry): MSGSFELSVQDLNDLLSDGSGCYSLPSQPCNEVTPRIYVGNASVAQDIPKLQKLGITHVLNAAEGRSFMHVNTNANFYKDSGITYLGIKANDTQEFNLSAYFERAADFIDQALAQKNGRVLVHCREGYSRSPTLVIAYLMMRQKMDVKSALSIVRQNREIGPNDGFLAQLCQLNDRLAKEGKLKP
Chain of Keap1/Nrf2 (Q16236 whole entry): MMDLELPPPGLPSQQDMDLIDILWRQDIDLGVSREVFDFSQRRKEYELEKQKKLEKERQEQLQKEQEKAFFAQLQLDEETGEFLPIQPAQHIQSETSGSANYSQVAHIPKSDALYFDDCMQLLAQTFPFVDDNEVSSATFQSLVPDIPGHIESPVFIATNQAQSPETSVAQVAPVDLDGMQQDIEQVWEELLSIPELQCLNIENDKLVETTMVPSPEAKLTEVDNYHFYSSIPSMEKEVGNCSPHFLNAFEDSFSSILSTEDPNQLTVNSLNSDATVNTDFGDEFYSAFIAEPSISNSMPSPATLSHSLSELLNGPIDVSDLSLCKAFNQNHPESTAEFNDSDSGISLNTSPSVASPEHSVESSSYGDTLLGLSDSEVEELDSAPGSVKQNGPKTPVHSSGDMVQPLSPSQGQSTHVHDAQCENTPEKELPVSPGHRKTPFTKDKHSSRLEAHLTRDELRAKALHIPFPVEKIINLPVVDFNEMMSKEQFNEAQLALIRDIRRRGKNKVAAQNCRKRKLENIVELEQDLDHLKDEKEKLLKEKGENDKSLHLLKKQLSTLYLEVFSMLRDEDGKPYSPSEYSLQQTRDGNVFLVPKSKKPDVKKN
Chain of Keap1/Nrf2 (Q14145 whole entry): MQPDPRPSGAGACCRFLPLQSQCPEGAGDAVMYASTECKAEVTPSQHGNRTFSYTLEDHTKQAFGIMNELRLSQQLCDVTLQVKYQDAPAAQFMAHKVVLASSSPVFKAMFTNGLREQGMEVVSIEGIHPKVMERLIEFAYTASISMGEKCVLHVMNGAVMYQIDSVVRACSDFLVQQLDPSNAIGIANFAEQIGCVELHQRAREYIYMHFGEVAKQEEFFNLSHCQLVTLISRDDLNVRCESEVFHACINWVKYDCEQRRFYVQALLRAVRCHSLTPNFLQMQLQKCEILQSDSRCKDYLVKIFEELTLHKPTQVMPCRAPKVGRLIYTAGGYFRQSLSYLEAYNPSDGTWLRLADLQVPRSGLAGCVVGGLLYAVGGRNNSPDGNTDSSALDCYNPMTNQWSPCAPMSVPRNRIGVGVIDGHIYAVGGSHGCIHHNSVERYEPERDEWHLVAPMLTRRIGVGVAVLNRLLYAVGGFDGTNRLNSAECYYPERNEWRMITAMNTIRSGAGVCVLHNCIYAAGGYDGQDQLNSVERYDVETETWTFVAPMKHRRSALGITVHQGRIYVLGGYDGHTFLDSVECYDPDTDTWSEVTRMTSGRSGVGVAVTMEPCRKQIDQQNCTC
Chain of Glyceraldehyde-3-phosphate dehydrogenase (P04406 whole entry): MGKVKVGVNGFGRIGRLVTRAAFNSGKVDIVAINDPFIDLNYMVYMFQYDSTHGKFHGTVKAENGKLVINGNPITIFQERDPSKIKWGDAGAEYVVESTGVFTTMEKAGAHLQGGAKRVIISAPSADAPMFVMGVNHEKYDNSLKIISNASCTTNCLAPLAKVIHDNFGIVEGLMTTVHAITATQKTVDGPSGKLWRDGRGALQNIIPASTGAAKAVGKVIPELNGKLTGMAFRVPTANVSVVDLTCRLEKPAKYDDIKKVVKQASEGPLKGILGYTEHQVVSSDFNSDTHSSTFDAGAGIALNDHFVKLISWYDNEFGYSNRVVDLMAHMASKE
Chain of Heat shock 70 kDa protein 1A (P0DMV8 whole entry): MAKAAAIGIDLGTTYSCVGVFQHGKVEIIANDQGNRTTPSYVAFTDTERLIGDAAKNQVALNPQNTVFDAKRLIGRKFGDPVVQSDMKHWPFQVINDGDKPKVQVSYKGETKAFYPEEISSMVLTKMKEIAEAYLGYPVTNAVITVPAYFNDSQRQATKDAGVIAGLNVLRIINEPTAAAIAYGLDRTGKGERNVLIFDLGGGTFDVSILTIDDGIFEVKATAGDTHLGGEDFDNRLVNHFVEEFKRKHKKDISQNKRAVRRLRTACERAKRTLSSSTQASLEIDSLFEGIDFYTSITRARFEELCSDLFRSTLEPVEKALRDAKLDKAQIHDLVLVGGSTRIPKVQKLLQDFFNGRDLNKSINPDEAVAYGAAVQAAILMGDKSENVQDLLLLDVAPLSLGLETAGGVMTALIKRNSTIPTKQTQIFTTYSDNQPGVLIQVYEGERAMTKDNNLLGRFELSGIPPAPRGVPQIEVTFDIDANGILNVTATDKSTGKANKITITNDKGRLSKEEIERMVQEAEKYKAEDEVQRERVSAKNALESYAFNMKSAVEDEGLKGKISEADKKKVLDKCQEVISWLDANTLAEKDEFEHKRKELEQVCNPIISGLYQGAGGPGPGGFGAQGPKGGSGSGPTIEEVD

Q: Which AC50 [1] does the source give for `O=C(NCCc1ccc(F)cc1)c1cccc2c1C(=O)c1ccc(N3CCC(Cc4ccccc4)CC3)cc1S2(=O)=O` here?
A: Its AC50 is 47.8 µM (active).

Q: What does the source list for `Cc1nc2ccccc2c(=O)n1/N=C/c1c(O)ccc2oc3c(c12)CCCC3`?
A: EC50 [2]: 11.1 µM (active); EC50 [3]: 9.98 µM (active); AC50 [4]: 30 µM (active); EC50 [5]: 11.7 µM (active); IC50 (Estrogen receptor): 29.2 µM (active); CC50 [6]: 4.26 µM (active); AC50 [7]: 32.8 µM (active)

Q: With `O=C(C1=C(O)C(=O)N(c2nccs2)C1c1ccccc1)c1cc2ccccc2o1` (centres undefined) as the compound, how does the EC50 [8] read?
A: Its EC50 is > 99 µM (inactive).

Q: And the AC50 (Keap1/Nrf2)?
A: The AC50 was 1.15 µM (active).

Q: And the EC50 [9]?
A: Its EC50 is > 99 µM (inactive).

Q: For `Oc1c2nc3ccccc3c-2nc2n1CCS2`, which AC50 (Candida albicans) is on record?
A: The AC50 was 17.1 µM (active).

Q: For `COc1cc([N+](=O)[O-])ccc1NC(=O)COC(=O)c1ccc(NC(N)=O)cc1`, which IC50 [10] is on record?
A: Its IC50 is > 100 µM (inactive).

Q: What about the IC50 [11] of the same compound?
A: Its IC50 is 76.2 µM (active).

Q: What about the EC50 [12] of the same compound?
A: Its EC50 is 10.4 µM (active).

Q: And the IC50 [13]?
A: The IC50 was 10.2 µM (active).

Q: And the IC50 [14]?
A: The IC50 was 4.62 µM (active).

Q: What about the IC50 [15] of the same compound?
A: Its IC50 is > 66.6 µM (inactive).

Q: And the IC50 [16]?
A: Its IC50 is 14.6 µM (active).

Q: Which Ki [17] does the source give for `O=C(O)C1Nc2c(Cl)cc(Cl)cc2C2C=CCC12` (centres undefined) here?
A: The Ki was 65.6 µM (inactive).

Q: And the IC50 [18]?
A: Its IC50 is 53 µM (active).

Q: And the IC50 (Phospholipase A2)?
A: Its IC50 is 9.08 µM (active).

Q: What about the IC50 [19] of the same compound?
A: The IC50 was > 100 µM (not active).

Q: And the IC50 [20]?
A: Its IC50 is > 100 µM (not active).

Q: What about the IC50 (Cysteine protease ATG4B) of the same compound?
A: The IC50 was 2.58 µM (active).

Q: And the IC50 [21]?
A: The IC50 was 63.5 µM (active).

Q: And the IC50 [22]?
A: The IC50 was 12.9 µM (active).

Q: What about the EC50 (Bcl-2-like protein 10) of the same compound?
A: The EC50 was 1.03 µM (active).

Q: And the IC50 [23]?
A: The IC50 was > 100 µM (not active).
